Measured values: ChEMBL document CHEMBL4376871, “Synthesis and anti-cancer activity studies of dammarane-type triterpenoid derivatives” (Eur J Med Chem, 2020)
Active and inactive are the calls of the source. The rule behind the calls is not given here.

Key:
MCF7 [1] = test: Antiproliferative activity against human MCF7 cells incubated for 48 hrs and measured after 4 hrs by MTT assay; assay type: functional, cell-based
[2] = Cytotoxicity against human IOSE-144 cells incubated for 48 hrs and measured after 4 hrs by MTT assay; assay type: cell-based
PC-3 [3] = test: Antiproliferative activity against human PC3 cells incubated for 48 hrs and measured after 4 hrs by MTT assay; assay type: functional, cell-based
A549 [4] = test: Antiproliferative activity against human A549 cells incubated for 48 hrs and measured after 4 hrs by MTT assay; assay type: functional, cell-based
MGC-803 [5] = test: Antiproliferative activity against human MGC803 cells incubated for 48 hrs and measured after 4 hrs by MTT assay; assay type: functional, cell-based
SGC-7901 [6] = test: Antiproliferative activity against human SGC7901 cells incubated for 48 hrs and measured after 4 hrs by MTT assay; assay type: functional, cell-based
MGC-803 [7] = test: Potency index, ratio of IC50 for AD-2 to IC50 for test compound for antiproliferative activity against human MGC803 incubated for 48 hrs and measured after 4 hrs by MTT assay; assay type: functional
SGC-7901 [8] = test: Potency index, ratio of IC50 for AD-2 to IC50 for test compound for antiproliferative activity against human SGC7901 incubated for 48 hrs and measured after 4 hrs by MTT assay; assay type: functional
MCF7 [9] = test: Potency index, ratio of IC50 for AD-2 to IC50 for test compound for antiproliferative activity against human MCF7 incubated for 48 hrs and measured after 4 hrs by MTT assay; assay type: functional
PC-3 [10] = test: Potency index, ratio of IC50 for AD-2 to IC50 for test compound for antiproliferative activity against human PC3 incubated for 48 hrs and measured after 4 hrs by MTT assay; assay type: functional
A549 [11] = test: Potency index, ratio of IC50 for AD-2 to IC50 for test compound for antiproliferative activity against human A549 incubated for 48 hrs and measured after 4 hrs by MTT assay; assay type: functional
A549 [12] = test: Induction of apoptosis in human A549 cells assessed as nuclear condensation at 10 to 20 uM measured after 12 hrs by DAPI staining based fluorescence microscopic analysis; assay type: functional, cell-based
A549 [13] = test: Induction of apoptosis in human A549 cells assessed as nuclear shrinkage at 10 to 20 uM measured after 12 hrs by DAPI staining based fluorescence microscopic analysis; assay type: functional, cell-based
A549 [14] = test: Induction of apoptosis in human A549 cells assessed as appearance of fragmented apoptotic bodies at 10 to 20 uM measured after 12 hrs by DAPI staining based fluorescence microscopic analysis; assay type: functional, cell-based

Compound | IC50 (MCF7 [1]) | IC50 [2] | IC50 (PC-3 [3]) | IC50 (A549 [4]) | IC50 (MGC-803 [5]) | IC50 (SGC-7901 [6]) | Ratio IC50 (MGC-803 [7]) | Ratio IC50 (SGC-7901 [8]) | Ratio IC50 (MCF7 [9]) | Ratio IC50 (PC-3 [10]) | Ratio IC50 (A549 [11]) | Activity (A549 [12]) | Activity (A549 [13]) | Activity (A549 [14])
CC(C)(O)CCC[C@@](C)(O)[C@H]1CC[C@]2(C)[C@@H]1[C@H](O)C[C@@H]1[C@@]3(C)CC[C@H](NC(=O)C4CCCNC4)C(C)(C)[C@@H]3CC[C@]12C (stereo partly specified) | 18.5 µM | > 100 µM | 30.8 µM | 11.6 µM | 20.6 µM | 29.9 µM | – | – | – | – | – | – | – | –
CC(C)(O)CCC[C@@](C)(O)[C@H]1CC[C@]2(C)[C@@H]1[C@H](O)C[C@@H]1[C@@]3(C)C/C(=C\c4ccc(Br)cc4)[C@H](O)C(C)(C)[C@@H]3CC[C@]12C | > 100 µM | > 100 µM | 16.5 µM | 38.6 µM | 26.1 µM | > 100 µM | – | – | – | – | – | – | – | –
CC(C)(O)CCC[C@@](C)(O)[C@H]1CC[C@]2(C)[C@@H]1[C@H](O)C[C@@H]1[C@@]3(C)CC[C@H](NC(=O)C4CCCN(C(=O)OC(C)(C)C)C4)C(C)(C)[C@@H]3CC[C@]12C (stereo partly specified) | 21.2 µM | > 100 µM | 23.1 µM | 23.5 µM | 16.8 µM | 18.1 µM | – | – | – | – | – | – | – | –
CC(C)(O)CCC[C@@](C)(O)[C@H]1CC[C@]2(C)[C@@H]1[C@H](O)C[C@@H]1[C@@]3(C)C/C(=C\c4ccc(F)cc4F)C(=O)C(C)(C)[C@@H]3CC[C@]12C | 8.32 µM | > 100 µM | 13.1 µM | 12.6 µM | 9.32 µM | 11.2 µM | 3 - 8 | 3 - 8 | 3 - 8 | 3 - 8 | 3 - 8 | – | – | –
CC(C)(O)CCC[C@@](C)(O)[C@H]1CC[C@]2(C)[C@@H]1[C@H](O)C[C@@H]1[C@@]3(C)C/C(=C\c4cccc([N+](=O)[O-])c4)C(=O)C(C)(C)[C@@H]3CC[C@]12C | 12.7 µM | > 100 µM | 14.1 µM | 16.7 µM | 11.3 µM | 17.6 µM | – | – | – | – | – | – | – | –
CC(C)(O)CCC[C@@](C)(O)[C@H]1CC[C@]2(C)[C@@H]1[C@H](O)C[C@@H]1[C@@]3(C)C/C(=C\c4ccc(F)cc4F)[C@H](O)C(C)(C)[C@@H]3CC[C@]12C | 13.2 µM | > 100 µM | 24.4 µM | 21.4 µM | 12.6 µM | 30.4 µM | – | – | – | – | – | – | – | –
CC(C)(O)CCC[C@@](C)(O)[C@H]1CC[C@]2(C)[C@@H]1[C@H](O)C[C@@H]1[C@@]3(C)C/C(=C\c4cccc(F)c4)[C@H](O)C(C)(C)[C@@H]3CC[C@]12C | > 100 µM | > 100 µM | > 100 µM | > 100 µM | 56.1 µM | > 100 µM | – | – | – | – | – | – | – | –
CC(C)(O)CCC[C@@](C)(O)[C@H]1CC[C@]2(C)[C@@H]1[C@H](O)C[C@@H]1[C@@]3(C)C/C(=C\c4cccc(F)c4)C(=O)C(C)(C)[C@@H]3CC[C@]12C | 14.8 µM | > 100 µM | 49.5 µM | 55.6 µM | 13.3 µM | 31.8 µM | – | – | – | – | – | – | – | –
CC(C)(O)CCC[C@@](C)(O)[C@H]1CC[C@]2(C)[C@@H]1[C@H](O)C[C@@H]1[C@@]3(C)C/C(=C\c4ccc(C(F)(F)F)cc4)C(=O)C(C)(C)[C@@H]3CC[C@]12C | 15.5 µM | > 100 µM | 36.8 µM | 48.4 µM | 26.2 µM | 29.1 µM | – | – | – | – | – | – | – | –
CC(C)(O)CCC[C@@](C)(O)[C@H]1CC[C@]2(C)[C@@H]1[C@H](O)C[C@@H]1[C@@]3(C)CC[C@H](OC(=O)C4CCN(C(=O)OC(C)(C)C)CC4)C(C)(C)[C@@H]3CC[C@]12C | 11 µM | > 100 µM | 25.8 µM | 10.8 µM | 22.2 µM | 18.2 µM | – | – | – | – | – | – | – | –
CC(C)(O)CCC[C@@](C)(O)[C@H]1CC[C@]2(C)[C@@H]1[C@H](O)C[C@@H]1[C@@]3(C)CC[C@H](OC(=O)C4CCCNC4)C(C)(C)[C@@H]3CC[C@]12C (stereo partly specified) | 14 µM | > 100 µM | 13.1 µM | 5.44 µM | 12.5 µM | 12.1 µM | – | – | – | – | – | – | – | –
CC(C)(O)CCC[C@@](C)(O)[C@H]1CC[C@]2(C)[C@@H]1[C@H](O)C[C@@H]1[C@@]3(C)C/C(=C\c4ccc([N+](=O)[O-])cc4)[C@H](O)C(C)(C)[C@@H]3CC[C@]12C | 49.4 µM | > 100 µM | 58.1 µM | 34.2 µM | 23.2 µM | 47.2 µM | – | – | – | – | – | – | – | –
CC(C)(O)CCC[C@@](C)(O)[C@H]1CC[C@]2(C)[C@@H]1[C@H](O)C[C@@H]1[C@@]3(C)C/C(=C\c4cccc(Br)c4)[C@H](O)C(C)(C)[C@@H]3CC[C@]12C | > 100 µM | > 100 µM | > 100 µM | > 100 µM | 18.8 µM | > 100 µM | – | – | – | – | – | – | – | –
CC(C)(O)CCC[C@@](C)(O)[C@H]1CC[C@]2(C)[C@@H]1[C@H](O)C[C@@H]1[C@@]3(C)C/C(=C\c4ccc(Br)cc4)C(=O)C(C)(C)[C@@H]3CC[C@]12C | 8.45 µM | > 100 µM | 16.6 µM | 23.1 µM | 13.8 µM | 21.4 µM | – | – | – | – | – | – | – | –
CC(C)(O)CCC[C@@](C)(O)[C@H]1CC[C@]2(C)[C@@H]1[C@H](O)C[C@@H]1[C@@]3(C)CC[C@H](OC(=O)C4CCCN(C(=O)OC(C)(C)C)C4)C(C)(C)[C@@H]3CC[C@]12C (stereo partly specified) | 26.7 µM | > 100 µM | 23.6 µM | 22.2 µM | 22.2 µM | 22.3 µM | – | – | – | – | – | – | – | –
CC(C)(O)CCC[C@@](C)(O)[C@H]1CC[C@]2(C)[C@@H]1[C@H](O)C[C@@H]1[C@@]3(C)CC[C@H](O)C(C)(C)[C@@H]3CC[C@]12C | 28.5 µM | > 100 µM | 45.7 µM | 22.7 µM | 69.8 µM | 34 µM | – | – | – | – | – | inactive | inactive | inactive
CC(C)(O)CCC[C@@](C)(O)[C@H]1CC[C@]2(C)[C@@H]1[C@H](O)C[C@@H]1[C@@]3(C)C/C(=C\c4cccc(Br)c4)C(=O)C(C)(C)[C@@H]3CC[C@]12C | 12.2 µM | > 100 µM | 14.1 µM | 34.7 µM | 13.6 µM | 20.6 µM | – | – | – | – | – | – | – | –
CC(C)(O)CCC[C@@](C)(O)[C@H]1CC[C@]2(C)[C@@H]1[C@H](O)C[C@@H]1[C@@]3(C)C/C(=C\c4ccc(C(F)(F)F)cc4)[C@H](O)C(C)(C)[C@@H]3CC[C@]12C | > 100 µM | > 100 µM | > 100 µM | 45.6 µM | > 100 µM | > 100 µM | – | – | – | – | – | – | – | –
CC(C)(O)CCC[C@@](C)(O)[C@H]1CC[C@]2(C)[C@@H]1[C@H](O)C[C@@H]1[C@@]3(C)C/C(=C\c4cccc([N+](=O)[O-])c4)[C@H](O)C(C)(C)[C@@H]3CC[C@]12C | > 100 µM | > 100 µM | 75.2 µM | 44.9 µM | > 100 µM | > 100 µM | – | – | – | – | – | – | – | –
CC(C)(O)CCC[C@@](C)(O)[C@H]1CC[C@]2(C)[C@@H]1[C@H](O)C[C@@H]1[C@@]3(C)CC[C@H](N)C(C)(C)[C@@H]3CC[C@]12C | 13.3 µM | > 100 µM | 34 µM | 7.68 µM | 13.8 µM | 53.1 µM | – | – | – | – | – | – | – | –
CC(C)(O)CCC[C@@](C)(O)[C@H]1CC[C@]2(C)[C@@H]1[C@H](O)C[C@@H]1[C@@]3(C)CC[C@H](NC(=O)C4CCNCC4)C(C)(C)[C@@H]3CC[C@]12C | 25.2 µM | > 100 µM | 34.1 µM | 20.3 µM | 25.5 µM | 32.4 µM | – | – | – | – | – | – | – | –
CC(C)(O)CCC[C@@](C)(O)[C@H]1CC[C@]2(C)[C@@H]1[C@H](O)C[C@@H]1[C@@]3(C)CC[C@H](NC(=O)C4CCN(C(=O)OC(C)(C)C)CC4)C(C)(C)[C@@H]3CC[C@]12C | 89.5 µM | > 100 µM | 17.9 µM | 11.7 µM | 11.4 µM | 18.8 µM | – | – | – | – | – | – | – | –
CC(C)(O)CCC[C@@](C)(O)[C@H]1CC[C@]2(C)[C@@H]1[C@H](O)C[C@@H]1[C@@]3(C)C/C(=C\c4ccc([N+](=O)[O-])cc4)C(=O)C(C)(C)[C@@H]3CC[C@]12C | 22.2 µM | > 100 µM | 30.8 µM | 19.7 µM | 22.2 µM | 28.2 µM | – | – | – | – | – | – | – | –
